Measurements: the kinase profiling compilation of Christmann-Franck et al. (2016)

Experiments:
Assay in all cases: radiometric filter-binding kinase assay, Kinase HotSpot
Settings in all cases: compound 0.5 µM; ATP 10 µM
CSNK2A1 (human) = CSNK2A1 (human) (UniProt P68400)
ROCK1 (human) = ROCK1 (human) (UniProt Q13464)
CAMK4 (human) = CAMK4 (human) (UniProt Q16566)
NEK9 (human) = NEK9 (human) (UniProt Q8TD19)
TTK (human) = TTK (human) (UniProt P33981)
PAK1 (human) = PAK1 (human) (UniProt Q13153)
RAF1 (human) = RAF1 (human) (UniProt P04049)
DYRK3 (human) = DYRK3 (human) (UniProt O43781)
MYLK (human) = MYLK (human) (UniProt Q15746)
INSR (human) = INSR (human) (UniProt P06213)
NEK2 (human) = NEK2 (human) (UniProt P51955)
EPHA3 (human) = EPHA3 (human) (UniProt P29320)
CDK1 CCNB1 (human) = CDK1 CCNB1 (human) (UniProt P06493+P14635)
MARK2 (human) = MARK2 (human) (UniProt Q7KZI7)
CAMK2A (human) = CAMK2A (human) (UniProt Q9UQM7)
NLK (human) = NLK (human) (UniProt Q9UBE8)
INSRR (human) = INSRR (human) (UniProt P14616)
MAPKAPK2 (human) = MAPKAPK2 (human) (UniProt P49137)
SGK3 (human) = SGK3 (human) (UniProt Q96BR1)
ADRBK2 (human) = ADRBK2 (human) (UniProt P35626)
NUAK2 (human) = NUAK2 (human) (UniProt Q9H093)
MAPK1 (human) = MAPK1 (human) (UniProt P28482)
ULK2 (human) = ULK2 (human) (UniProt Q8IYT8)
PIM3 (human) = PIM3 (human) (UniProt Q86V86)
MERTK (human) = MERTK (human) (UniProt Q12866)
PAK2 (human) = PAK2 (human) (UniProt Q13177)
RPS6KA1 KD1 KD2 (human) = RPS6KA1 KD1 KD2 (human) (UniProt Q15418)
PAK4 (human) = PAK4 (human) (UniProt O96013)
SRPK2 (human) = SRPK2 (human) (UniProt P78362)
MKNK2 (human) = MKNK2 (human) (UniProt Q9HBH9)
PRKCG (human) = PRKCG (human) (UniProt P05129)
EPHA2 (human) = EPHA2 (human) (UniProt P29317)
HIPK1 (human) = HIPK1 (human) (UniProt Q86Z02)
STK17A (human) = STK17A (human) (UniProt Q9UEE5)
EPHA8 (human) = EPHA8 (human) (UniProt P29322)
RET (human) = RET (human) (UniProt P07949)
PTK6 (human) = PTK6 (human) (UniProt Q13882)
TAOK3 (human) = TAOK3 (human) (UniProt Q9H2K8)
MYLK2 (human) = MYLK2 (human) (UniProt Q9H1R3)
FGFR2 (human) = FGFR2 (human) (UniProt P21802)
GRK4 (human) = GRK4 (human) (UniProt P32298)
CAMKK1 (human) = CAMKK1 (human) (UniProt Q8N5S9)

Chain of MKNK2 (human) (Q9HBH9 whole entry, looked up): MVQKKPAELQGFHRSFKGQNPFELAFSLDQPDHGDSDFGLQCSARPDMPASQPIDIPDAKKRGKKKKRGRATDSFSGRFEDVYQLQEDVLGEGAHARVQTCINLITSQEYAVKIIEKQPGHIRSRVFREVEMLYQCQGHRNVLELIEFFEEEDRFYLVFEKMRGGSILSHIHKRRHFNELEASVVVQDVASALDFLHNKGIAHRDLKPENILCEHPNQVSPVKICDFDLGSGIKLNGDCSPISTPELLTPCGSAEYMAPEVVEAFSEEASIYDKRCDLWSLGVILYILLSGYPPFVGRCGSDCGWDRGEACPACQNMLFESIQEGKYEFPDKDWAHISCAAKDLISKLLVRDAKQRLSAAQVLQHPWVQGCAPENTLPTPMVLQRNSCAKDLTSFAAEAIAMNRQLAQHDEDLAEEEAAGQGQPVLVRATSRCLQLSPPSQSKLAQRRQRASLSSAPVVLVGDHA
Chain of PTK6 (human) (Q13882 whole entry, looked up): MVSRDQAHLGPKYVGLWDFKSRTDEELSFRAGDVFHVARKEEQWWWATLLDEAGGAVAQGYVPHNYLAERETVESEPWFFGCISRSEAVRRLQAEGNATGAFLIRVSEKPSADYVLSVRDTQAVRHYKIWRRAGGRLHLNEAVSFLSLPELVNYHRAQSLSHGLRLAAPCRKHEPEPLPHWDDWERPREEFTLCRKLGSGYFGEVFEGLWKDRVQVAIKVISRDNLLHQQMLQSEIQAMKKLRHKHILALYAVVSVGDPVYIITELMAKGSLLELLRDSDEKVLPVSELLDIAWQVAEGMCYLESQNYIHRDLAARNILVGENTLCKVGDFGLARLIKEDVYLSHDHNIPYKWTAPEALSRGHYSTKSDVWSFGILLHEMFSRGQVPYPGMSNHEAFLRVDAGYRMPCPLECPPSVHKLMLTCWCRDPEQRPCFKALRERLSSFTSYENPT
Chain of CAMK2A (human) (Q9UQM7 whole entry, looked up): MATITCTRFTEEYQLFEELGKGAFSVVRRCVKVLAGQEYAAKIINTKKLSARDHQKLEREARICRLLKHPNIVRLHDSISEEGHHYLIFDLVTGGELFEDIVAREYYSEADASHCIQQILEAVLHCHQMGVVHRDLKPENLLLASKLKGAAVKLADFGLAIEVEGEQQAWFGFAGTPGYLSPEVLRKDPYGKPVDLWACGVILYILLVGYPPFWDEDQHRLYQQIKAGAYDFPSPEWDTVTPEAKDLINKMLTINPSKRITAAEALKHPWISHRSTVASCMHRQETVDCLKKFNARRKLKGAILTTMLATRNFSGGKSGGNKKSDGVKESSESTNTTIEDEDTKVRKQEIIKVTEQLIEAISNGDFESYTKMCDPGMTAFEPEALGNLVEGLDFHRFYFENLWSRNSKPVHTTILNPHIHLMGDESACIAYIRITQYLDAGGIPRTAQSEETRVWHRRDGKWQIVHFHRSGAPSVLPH
Chain of NUAK2 (human) (Q9H093 whole entry, looked up): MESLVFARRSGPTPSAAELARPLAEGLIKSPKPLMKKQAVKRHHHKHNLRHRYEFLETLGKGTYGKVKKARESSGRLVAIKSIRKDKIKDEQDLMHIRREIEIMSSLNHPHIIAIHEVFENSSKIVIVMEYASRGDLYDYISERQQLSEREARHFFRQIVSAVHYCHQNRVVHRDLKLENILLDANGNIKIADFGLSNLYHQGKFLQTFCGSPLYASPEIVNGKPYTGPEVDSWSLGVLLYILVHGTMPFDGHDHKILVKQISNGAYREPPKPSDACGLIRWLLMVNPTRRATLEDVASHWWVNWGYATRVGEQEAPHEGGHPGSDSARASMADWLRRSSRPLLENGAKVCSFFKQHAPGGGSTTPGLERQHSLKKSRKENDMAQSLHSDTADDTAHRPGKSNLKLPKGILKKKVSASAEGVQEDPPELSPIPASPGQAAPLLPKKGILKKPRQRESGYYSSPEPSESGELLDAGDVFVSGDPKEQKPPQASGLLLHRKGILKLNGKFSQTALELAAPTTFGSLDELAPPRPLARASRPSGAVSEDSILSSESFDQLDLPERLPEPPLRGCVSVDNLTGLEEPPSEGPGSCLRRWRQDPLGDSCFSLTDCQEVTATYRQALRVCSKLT
Chain of MAPKAPK2 (human) (P49137 whole entry, looked up): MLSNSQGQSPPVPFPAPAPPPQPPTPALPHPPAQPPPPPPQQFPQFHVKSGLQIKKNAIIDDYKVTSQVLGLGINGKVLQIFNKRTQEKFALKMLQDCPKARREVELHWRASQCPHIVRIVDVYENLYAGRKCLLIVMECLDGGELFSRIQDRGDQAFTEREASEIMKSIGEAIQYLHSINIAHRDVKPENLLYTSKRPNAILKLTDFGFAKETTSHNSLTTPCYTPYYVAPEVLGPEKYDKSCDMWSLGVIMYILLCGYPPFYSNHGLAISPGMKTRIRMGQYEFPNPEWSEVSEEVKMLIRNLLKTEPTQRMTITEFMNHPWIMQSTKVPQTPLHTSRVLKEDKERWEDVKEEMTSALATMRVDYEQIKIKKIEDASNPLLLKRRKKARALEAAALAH
Chain of SRPK2 (human) (P78362 whole entry, looked up): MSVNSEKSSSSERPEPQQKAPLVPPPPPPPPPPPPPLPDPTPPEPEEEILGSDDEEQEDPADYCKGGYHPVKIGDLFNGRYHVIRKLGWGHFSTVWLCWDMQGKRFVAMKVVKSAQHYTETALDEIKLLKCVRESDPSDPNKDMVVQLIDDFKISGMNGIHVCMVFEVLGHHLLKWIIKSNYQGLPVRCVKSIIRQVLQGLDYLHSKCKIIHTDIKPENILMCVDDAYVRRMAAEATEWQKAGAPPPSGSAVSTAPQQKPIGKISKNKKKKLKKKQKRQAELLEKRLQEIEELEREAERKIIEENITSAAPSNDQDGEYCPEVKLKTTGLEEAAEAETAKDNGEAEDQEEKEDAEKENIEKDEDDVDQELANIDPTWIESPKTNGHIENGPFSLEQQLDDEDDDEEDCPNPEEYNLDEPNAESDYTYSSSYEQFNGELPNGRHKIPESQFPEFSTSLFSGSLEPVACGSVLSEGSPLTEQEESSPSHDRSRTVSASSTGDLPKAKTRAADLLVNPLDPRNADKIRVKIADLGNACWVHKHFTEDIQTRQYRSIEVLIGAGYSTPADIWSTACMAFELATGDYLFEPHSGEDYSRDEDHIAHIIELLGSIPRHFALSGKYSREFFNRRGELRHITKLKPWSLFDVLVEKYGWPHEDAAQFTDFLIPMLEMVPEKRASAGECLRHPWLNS
Chain of PAK4 (human) (O96013 whole entry, looked up): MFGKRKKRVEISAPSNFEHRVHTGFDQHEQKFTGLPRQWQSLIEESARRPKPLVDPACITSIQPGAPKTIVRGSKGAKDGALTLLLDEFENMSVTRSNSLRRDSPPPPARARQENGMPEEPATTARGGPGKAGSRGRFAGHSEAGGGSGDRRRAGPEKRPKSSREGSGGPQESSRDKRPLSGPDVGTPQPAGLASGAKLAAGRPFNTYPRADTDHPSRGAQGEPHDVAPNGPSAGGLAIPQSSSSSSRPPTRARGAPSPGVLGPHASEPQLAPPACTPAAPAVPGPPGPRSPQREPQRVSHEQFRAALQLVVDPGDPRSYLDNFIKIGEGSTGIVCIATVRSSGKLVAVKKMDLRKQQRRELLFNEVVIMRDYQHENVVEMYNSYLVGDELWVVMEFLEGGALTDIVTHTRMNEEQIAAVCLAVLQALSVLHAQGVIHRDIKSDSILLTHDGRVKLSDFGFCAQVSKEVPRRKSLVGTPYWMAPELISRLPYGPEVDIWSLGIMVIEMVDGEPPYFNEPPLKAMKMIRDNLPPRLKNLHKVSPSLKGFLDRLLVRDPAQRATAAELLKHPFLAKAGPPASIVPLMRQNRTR
Chain of MYLK2 (human) (Q9H1R3 whole entry, looked up): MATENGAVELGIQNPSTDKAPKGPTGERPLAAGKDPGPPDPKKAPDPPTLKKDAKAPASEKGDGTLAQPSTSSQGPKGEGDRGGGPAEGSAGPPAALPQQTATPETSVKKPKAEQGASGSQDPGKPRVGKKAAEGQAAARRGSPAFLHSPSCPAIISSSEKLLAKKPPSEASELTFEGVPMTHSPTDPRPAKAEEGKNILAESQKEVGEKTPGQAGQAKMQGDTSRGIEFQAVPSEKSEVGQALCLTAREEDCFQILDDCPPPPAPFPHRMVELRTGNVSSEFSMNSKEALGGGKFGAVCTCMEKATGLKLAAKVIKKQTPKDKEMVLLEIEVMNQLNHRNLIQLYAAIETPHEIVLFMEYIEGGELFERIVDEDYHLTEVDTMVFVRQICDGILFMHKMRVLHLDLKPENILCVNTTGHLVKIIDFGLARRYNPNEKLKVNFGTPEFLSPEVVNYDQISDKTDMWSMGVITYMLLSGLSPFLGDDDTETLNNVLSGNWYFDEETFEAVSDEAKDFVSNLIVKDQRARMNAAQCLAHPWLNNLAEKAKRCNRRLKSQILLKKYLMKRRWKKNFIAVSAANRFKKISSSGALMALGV
Chain of GRK4 (human) (P32298 whole entry, looked up): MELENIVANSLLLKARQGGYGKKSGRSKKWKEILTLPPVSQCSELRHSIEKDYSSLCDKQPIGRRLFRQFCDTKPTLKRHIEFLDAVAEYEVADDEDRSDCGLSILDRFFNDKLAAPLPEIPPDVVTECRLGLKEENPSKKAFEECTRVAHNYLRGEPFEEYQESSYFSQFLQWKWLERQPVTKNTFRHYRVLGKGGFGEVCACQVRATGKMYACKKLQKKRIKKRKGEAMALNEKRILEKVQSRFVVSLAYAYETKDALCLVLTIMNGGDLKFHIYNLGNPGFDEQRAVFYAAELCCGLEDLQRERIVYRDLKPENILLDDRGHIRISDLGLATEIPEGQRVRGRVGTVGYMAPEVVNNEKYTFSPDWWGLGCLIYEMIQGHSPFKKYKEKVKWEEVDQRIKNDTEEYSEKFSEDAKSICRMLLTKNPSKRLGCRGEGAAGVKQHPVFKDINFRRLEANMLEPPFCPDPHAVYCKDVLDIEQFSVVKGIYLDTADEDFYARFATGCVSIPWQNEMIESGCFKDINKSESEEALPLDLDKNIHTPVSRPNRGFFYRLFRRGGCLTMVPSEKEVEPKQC

Question: For O=C(CCCc1ccc(-c2ccccc2F)cc1)Nc1ccc(O)cc1, which residual activity (CSNK2A1 (human)) is on record?
Answer: The residual activity was 89.4%.

Question: And the residual activity (ROCK1 (human))?
Answer: The residual activity was 106%.

Question: What about the residual activity (CAMK4 (human)) of the same molecule?
Answer: Its residual activity is 99.6%.

Question: What about the residual activity (NEK9 (human)) of the same molecule?
Answer: The residual activity was 92.7%.

Question: What about the residual activity (TTK (human)) of the same molecule?
Answer: Its residual activity is 89.5%.

Question: And the residual activity (PAK1 (human))?
Answer: Its residual activity is 95.4%.

Question: What about the residual activity (RAF1 (human)) of the same molecule?
Answer: The residual activity was 102%.

Question: What about the residual activity (DYRK3 (human)) of the same molecule?
Answer: The residual activity was 94.5%.

Question: And the residual activity (MYLK (human))?
Answer: Its residual activity is 98.6%.

Question: What about the residual activity (INSR (human)) of the same molecule?
Answer: Its residual activity is 102%.

Question: And the residual activity (NEK2 (human))?
Answer: Its residual activity is 90.6%.

Question: And the residual activity (EPHA3 (human))?
Answer: Its residual activity is 100%.

Question: And the residual activity (CDK1 CCNB1 (human))?
Answer: Its residual activity is 102%.

Question: And the residual activity (MARK2 (human))?
Answer: Its residual activity is 91.5%.

Question: And the residual activity (CAMK2A (human))?
Answer: Its residual activity is 116%.

Question: And the residual activity (NLK (human))?
Answer: The residual activity was 101%.

Question: What about the residual activity (INSRR (human)) of the same molecule?
Answer: The residual activity was 92.7%.

Question: What about the residual activity (MAPKAPK2 (human)) of the same molecule?
Answer: The residual activity was 103%.

Question: What about the residual activity (SGK3 (human)) of the same molecule?
Answer: Its residual activity is 106%.

Question: What about the residual activity (ADRBK2 (human)) of the same molecule?
Answer: Its residual activity is 100%.

Question: And the residual activity (NUAK2 (human))?
Answer: The residual activity was 92.9%.

Question: What about the residual activity (MAPK1 (human)) of the same molecule?
Answer: Its residual activity is 69.9%.

Question: What about the residual activity (ULK2 (human)) of the same molecule?
Answer: The residual activity was 116%.

Question: What about the residual activity (PIM3 (human)) of the same molecule?
Answer: The residual activity was 104%.

Question: And the residual activity (MERTK (human))?
Answer: The residual activity was 98.8%.

Question: And the residual activity (PAK2 (human))?
Answer: Its residual activity is 101%.

Question: What about the residual activity (RPS6KA1 KD1 KD2 (human)) of the same molecule?
Answer: The residual activity was 102%.

Question: And the residual activity (PAK4 (human))?
Answer: The residual activity was 95.4%.

Question: And the residual activity (SRPK2 (human))?
Answer: Its residual activity is 94.3%.

Question: And the residual activity (MKNK2 (human))?
Answer: The residual activity was 106%.

Question: What about the residual activity (PRKCG (human)) of the same molecule?
Answer: The residual activity was 98%.

Question: And the residual activity (EPHA2 (human))?
Answer: Its residual activity is 101%.

Question: What about the residual activity (HIPK1 (human)) of the same molecule?
Answer: Its residual activity is 105%.

Question: What about the residual activity (STK17A (human)) of the same molecule?
Answer: Its residual activity is 101%.

Question: And the residual activity (EPHA8 (human))?
Answer: The residual activity was 114%.

Question: And the residual activity (RET (human))?
Answer: The residual activity was 111%.

Question: What about the residual activity (PTK6 (human)) of the same molecule?
Answer: The residual activity was 102%.

Question: What about the residual activity (TAOK3 (human)) of the same molecule?
Answer: Its residual activity is 91.4%.

Question: What about the residual activity (MYLK2 (human)) of the same molecule?
Answer: Its residual activity is 97.8%.

Question: And the residual activity (FGFR2 (human))?
Answer: Its residual activity is 102%.

Question: And the residual activity (GRK4 (human))?
Answer: Its residual activity is 96.8%.

Question: With COc1ccc(OC)c2c(=S)c3ccccc3[nH]c12 as the molecule, how does the residual activity (CSNK2A1 (human)) read?
Answer: Its residual activity is 100%.

Question: And the residual activity (ROCK1 (human))?
Answer: Its residual activity is 97.8%.

Question: What about the residual activity (CAMK4 (human)) of the same molecule?
Answer: Its residual activity is 101%.

Question: And the residual activity (NEK9 (human))?
Answer: Its residual activity is 95.8%.

Question: And the residual activity (TTK (human))?
Answer: Its residual activity is 99.1%.

Question: And the residual activity (PAK1 (human))?
Answer: Its residual activity is 89.2%.

Question: And the residual activity (RAF1 (human))?
Answer: The residual activity was 88.2%.

Question: What about the residual activity (CAMKK1 (human)) of the same molecule?
Answer: The residual activity was 108%.

Question: And the residual activity (DYRK3 (human))?
Answer: The residual activity was 98.2%.

Question: And the residual activity (MYLK (human))?
Answer: Its residual activity is 89.8%.

Question: And the residual activity (INSR (human))?
Answer: Its residual activity is 102%.

Question: What about the residual activity (EPHA3 (human)) of the same molecule?
Answer: The residual activity was 94.9%.

Question: What about the residual activity (CDK1 CCNB1 (human)) of the same molecule?
Answer: The residual activity was 97.8%.

Question: What about the residual activity (MARK2 (human)) of the same molecule?
Answer: Its residual activity is 93.9%.

Question: And the residual activity (CAMK2A (human))?
Answer: The residual activity was 100%.

Question: And the residual activity (NLK (human))?
Answer: Its residual activity is 98.8%.

Question: And the residual activity (INSRR (human))?
Answer: The residual activity was 88.7%.

Question: What about the residual activity (MAPKAPK2 (human)) of the same molecule?
Answer: Its residual activity is 94.6%.

Question: And the residual activity (SGK3 (human))?
Answer: The residual activity was 90.7%.

Question: And the residual activity (ADRBK2 (human))?
Answer: The residual activity was 86.5%.

Question: What about the residual activity (NUAK2 (human)) of the same molecule?
Answer: Its residual activity is 98.9%.

Question: What about the residual activity (MAPK1 (human)) of the same molecule?
Answer: The residual activity was 91.5%.

Question: What about the residual activity (ULK2 (human)) of the same molecule?
Answer: The residual activity was 94.7%.

Question: What about the residual activity (PIM3 (human)) of the same molecule?
Answer: Its residual activity is 93.1%.

Question: And the residual activity (MERTK (human))?
Answer: Its residual activity is 86.7%.

Question: What about the residual activity (PAK2 (human)) of the same molecule?
Answer: Its residual activity is 104%.

Question: And the residual activity (RPS6KA1 KD1 KD2 (human))?
Answer: The residual activity was 94.6%.

Question: And the residual activity (PAK4 (human))?
Answer: The residual activity was 102%.

Question: And the residual activity (SRPK2 (human))?
Answer: Its residual activity is 95.1%.

Question: And the residual activity (MKNK2 (human))?
Answer: The residual activity was 86.2%.

Question: What about the residual activity (PRKCG (human)) of the same molecule?
Answer: The residual activity was 77.6%.

Question: And the residual activity (EPHA2 (human))?
Answer: Its residual activity is 100%.

Question: What about the residual activity (HIPK1 (human)) of the same molecule?
Answer: Its residual activity is 107%.

Question: And the residual activity (STK17A (human))?
Answer: The residual activity was 90.3%.

Question: And the residual activity (EPHA8 (human))?
Answer: The residual activity was 93.8%.

Question: And the residual activity (RET (human))?
Answer: Its residual activity is 82.8%.

Question: And the residual activity (PTK6 (human))?
Answer: Its residual activity is 84%.

Question: What about the residual activity (TAOK3 (human)) of the same molecule?
Answer: Its residual activity is 92.7%.

Question: And the residual activity (MYLK2 (human))?
Answer: Its residual activity is 95.7%.

Question: What about the residual activity (FGFR2 (human)) of the same molecule?
Answer: Its residual activity is 95.8%.

Question: And the residual activity (GRK4 (human))?
Answer: The residual activity was 103%.

Question: Which results are given for COc1cc2ncc(-c3ccccc3)nc2cc1OC?
Answer: residual activity (ROCK1 (human)): 95.5%; residual activity (CAMK4 (human)): 95.2%; residual activity (NEK9 (human)): 93.5%; residual activity (TTK (human)): 125%; residual activity (PAK1 (human)): 91.3%; residual activity (RAF1 (human)): 106%; residual activity (CAMKK1 (human)): 98.9%; residual activity (DYRK3 (human)): 95.4%; residual activity (MYLK (human)): 97.4%; residual activity (INSR (human)): 89.1%; residual activity (NEK2 (human)): 85.3%; residual activity (EPHA3 (human)): 86.8%; residual activity (CDK1 CCNB1 (human)): 105%; residual activity (MARK2 (human)): 112%; residual activity (CAMK2A (human)): 99.5%; residual activity (NLK (human)): 89.3%; residual activity (INSRR (human)): 99.2%; residual activity (MAPKAPK2 (human)): 85.9%; residual activity (SGK3 (human)): 89.7%; residual activity (ADRBK2 (human)): 94.3%; residual activity (NUAK2 (human)): 133%; residual activity (MAPK1 (human)): 95.6%; residual activity (ULK2 (human)): 113%; residual activity (PIM3 (human)): 87.4%; residual activity (MERTK (human)): 80%; residual activity (PAK2 (human)): 85.6%; residual activity (RPS6KA1 KD1 KD2 (human)): 88.4%; residual activity (PAK4 (human)): 75.9%; residual activity (SRPK2 (human)): 84.4%; residual activity (MKNK2 (human)): 86.3%; residual activity (PRKCG (human)): 101%; residual activity (EPHA2 (human)): 102%; residual activity (HIPK1 (human)): 93.4%; residual activity (STK17A (human)): 95.5%; residual activity (EPHA8 (human)): 93.1%; residual activity (RET (human)): 84.4%; residual activity (PTK6 (human)): 80.8%; residual activity (TAOK3 (human)): 88.9%; residual activity (MYLK2 (human)): 100%; residual activity (FGFR2 (human)): 103%; residual activity (GRK4 (human)): 97.8%
